Experimental data as given in patent US12365651B2, “Use of pirfenidone and derivatives for modulation of B lymphocyte activity and organ protection from acute tissue damage” (Washington University, priority 2017, dated 2025).
Several values for one entry are separate records, joined by “and”; a condition that tells them apart may be missing. Equal values may be shown once.

Key:
[1] = test system: Peritoneal derived inflammatory cells; assay: In vitro immunomodulatory effect of tested PEG compounds (CD86 on CD19+ cells, LPS); assay type: cell-based, mouse; conditions: LPS 100 ng/ml, 24 h, various concentrations
Description: Peritoneal derived inflammatory cells were collected on day for post intraperitoneal injection of Thyoglicollate. Cells were cultured for 24 h in baseline condition (control), in the presence of LPS 100 ng/ml (LPS) or in the presence of LPS 100 ng/ml and various concentrations of different forms of Pegylated Pirfenidone (named C2 and C3 in FIG. 11A and C4 to C6 in FIG. 11B)). After the 24 h in culture cells were collected and analyzed via flow cytometry to assess the expression of CD86 on CD19+ cells (B lymphocytes). […] FIG. 11C reports the molecular weights of the tested forms of PEGylated Pirfenidone and the molecular weight (MW) ration between the tested compound and Pirfenidone).

[2] = Plasma pharmacokinetics after IV or PO administration; assay type: in vivo; conditions: SD Rat, PO 40 mg/kg
[3] = test system: wild-type (WT) mice (C57BL/6J); assay: Closed-chest ischemia (90 minutes) reperfusion (I/R) injury; assay type: in vivo, mouse
Description: Ischemia Reperfusion (I/R) Injury. Hearts from wild-type (WT) mice (C57BL/6J; purchased from Jackson Laboratory) were subjected to ischemia reperfusion (I/R) injury, using the closed-chest ischemia reperfusion model developed by Entman and colleagues (34), and modified as we have described previously (15). For the studies described herein we used 9-10 week old mice that were instrumented, then at 1 week post instrumentation were anesthetized with 1.5% isoflurane, and subjected to 90 minutes of closed-chest ischemia, followed by reperfusion for 2 weeks.
In order to administer Pirfenidone, mice were fed powdered chow mixed with Pirfenidone (eNovation Chemicals, Bridgewater, NJ, USA, Cat #D404655) at 0.5% in weight or powdered chow alone. […] Unless specifically noted, mice were switched to a diet enriched with Pirfenidone 3 days prior to DT-induced injury or I/R-injury, and maintained on this diet throughout the duration of the experiments. In parallel studies, we fed mice normal chow prior to I/R injury and then administered Pirfenidone acutely at the time of cardiac injury. For these latter studies, mice were injected i.p. with diluent (200 μL phosphate-buffered solution [PBS]) or i.p. with Pirfenidone (200 μL of Pirfenidone [5 mg/mL] in PBS) after reperfusion and the morning after I/R injury (2 injections total). They were switched to Pirfenidone-enriched diet or control diet the evening of I/R injury and maintained on the same diet until completion of the experiment.
Rosa26-DT Mlc2v-Cre and littermate control WT mice were euthanized 14 days after DT injection, and the hearts were removed and weighed to determine the heart-weight-to-tibia-length-ratio. WT mice were euthanized 14 days after I/R injury and the hearts were removed and weighed to determine the heart-weight-to-tibia-length-ratio. Hearts were processed, paraffin-embedded, and stained with hematoxylin/eosin and Masson's trichrome, as described (38). TUNEL staining was performed with the Millipore (Burlington, MA, USA) S7200 ApopTag Peroxidase In Situ Oligo Ligation Apoptosis Detection Kit according to the manufacturer's instruction.
Image acquisition. Ultrasound examination of the cardiovascular system was performed using a Vevo 2100 Ultrasound System (VisualSonics Inc, Toronto, Ontario, Canada) equipped with a 30 MHz linear-array transducer, as previously described (15).
Imaging Protocol. Mice were imaged by echocardiography at the time of ischemia and 2 weeks after reperfusion to evaluate LV structure and function, as described (39). The echocardiographer was blinded to study group assignment. Animals with poor acoustic windows or small areas at risk (<0.45) at the time of ischemia were excluded from further analysis.
For flow cytometry experiments, mice were euthanized in a CO2 chamber and the hearts were perfused with cold PBS, carefully dissected from extracardiac tissue under a stereo microscope, finely minced, suspended in 3 ml of DMEM, and then digested with 120 U of DNAse (Sigma), 180 U of hyaluronidase (Sigma) and 1350 U of Collagenase (Sigma) for 60 minutes at 37Co. The digested material was filtered through 40 μm filters and pelleted by centrifugation (250×g for 3 minutes at 4° C.) in HBSS supplemented with 2% FCS+0.2% bovine serum albumin (BSA). Red blood cells were lysed in ACK lysis buffer (Invitrogen) for 15′ on ice and the remaining cells were resuspended in 300 μL of FACS buffer (PBS with 2% FCS and 2 mM EDTA). Cultured cells were collected for FACS analysis as described above and resuspended in 300 μL of FACS buffer. Samples were labeled with the fluorescently conjugated antibodies outlined in the table below. Cells were stained for 45 minutes on ice, and washed in FACS buffer prior to analysis. All antibodies from Biolegend were used at 0.2 μL per 300 μL sample, while antibodies from BD biosciences were used at 0.4 μL per 300 μL sample. FACS was performed on Beckton Dickinson analyzers (LSRII, Canto, X20 or Fortessa). […]

[4] = Pirfenidone chow from 3 days prior to I/R, 2 weeks post I/R, vs control
[5] = day 4 post I/R, Pirfenidone vs control

Cc1ccc(=O)n(-c2ccccc2)c1 [Pirfenidone, 5 methyl-1-phenyl-2-[H] pyridone]
expression of CD86 on CD19+ cells [1]: reduced
AUMC0-t, Mean [2]: 14976 h*h*ng/mL
Plasma concentrations of Pirfenidone ([2]; 8 h, individual rats 7-9, 40 mg/kg): BLOQ (Below lower limit of quantification (1 ng/mL)) and 23.6 ng/ml and 107 ng/ml
Tmax ([2]; Sprague-Dawley, plasma, individual rats 7-9): 15 min
LVEF ([3]; B-cell depleted (anti-CD20) + Pirfenidone vs B-cell depleted mice, 2 weeks after I/R, p=0.15): no significant difference
LV mass ([3]; B-cell depleted (anti-CD20) + Pirfenidone vs B-cell depleted mice, 2 weeks after I/R, p=0.21): no significant difference
LV end-diastolic volume ([3]; B-cell depleted (anti-CD20) + Pirfenidone vs B-cell depleted mice, 2 weeks after I/R, p=0.40): no significant difference
percentage of trichrome positive myocardium ([3]; B-cell depleted (anti-CD20) + Pirfenidone vs B-cell depleted mice, 2 weeks after I/R, p=0.43): no significant difference
heart-weight-to-tibia length ratio ([3]; B-cell depleted (anti-CD20) + Pirfenidone vs B-cell depleted mice, 2 weeks after I/R, p=0.75): no significant difference
area at risk (segmental wall motion score index, SWMSI) ([3]; Pirfenidone chow from 3 days prior to I/R vs control, p=0.68): no difference
LV end-diastolic volumes [3, 4]: significant (p=0.02) decrease
LVEF [3, 4]: trend (p=0.08) towards improvement
heart-weight-to-tibia length ratio [3, 4]: significant decrease
LV mass measured by 2-D echocardiography ([3]; Pirfenidone chow from 3 days prior to I/R, 2 weeks post I/R, vs control, p=0.03): significant decrease
percentage of myocardium exhibiting collagen staining with Masson's trichrome ([3]; Pirfenidone chow from 3 days prior to I/R, at 2 weeks, vs normal chow, p=0.4): no significant difference
heart-weight/tibia length ratio ([3]; acute administration of Pirfenidone after reperfusion then chow 14 days, vs diluent, p=0.015): significantly (p=0.015) reduced
area at risk ([3]; acute administration of Pirfenidone after reperfusion, vs diluent, p=0.47): not different
CD19+ lymphocytes [3, 5]: significant (p<0.001) reduction
subset of CD19+CD11b− B lymphocytes [3, 5]: significant (p<0.001) reduction
number of myocardial CD19+ CD86high ([3]; following I/R injury, day 4): significant (p<0.03) decrease
